Data set [1] concerns the target T1, Adrenergic receptor alpha-1 (Rattus norvegicus, UniProt P15823+P23944+P43140).
T1 sequence (P15823 whole entry): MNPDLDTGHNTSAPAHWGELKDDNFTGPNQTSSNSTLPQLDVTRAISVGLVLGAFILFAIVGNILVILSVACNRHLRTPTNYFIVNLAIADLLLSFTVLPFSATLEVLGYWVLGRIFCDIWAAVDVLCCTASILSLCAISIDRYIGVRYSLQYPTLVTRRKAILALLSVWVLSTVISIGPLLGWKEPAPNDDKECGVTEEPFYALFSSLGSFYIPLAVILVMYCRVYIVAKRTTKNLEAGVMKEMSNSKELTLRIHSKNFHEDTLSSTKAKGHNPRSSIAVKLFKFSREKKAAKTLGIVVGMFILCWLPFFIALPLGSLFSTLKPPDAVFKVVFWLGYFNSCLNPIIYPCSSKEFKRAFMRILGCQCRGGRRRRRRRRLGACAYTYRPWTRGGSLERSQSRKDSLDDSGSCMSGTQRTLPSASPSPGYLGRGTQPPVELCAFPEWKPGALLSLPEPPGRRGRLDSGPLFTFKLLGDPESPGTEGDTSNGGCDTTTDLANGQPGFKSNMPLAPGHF
T1 sequence (P23944 whole entry): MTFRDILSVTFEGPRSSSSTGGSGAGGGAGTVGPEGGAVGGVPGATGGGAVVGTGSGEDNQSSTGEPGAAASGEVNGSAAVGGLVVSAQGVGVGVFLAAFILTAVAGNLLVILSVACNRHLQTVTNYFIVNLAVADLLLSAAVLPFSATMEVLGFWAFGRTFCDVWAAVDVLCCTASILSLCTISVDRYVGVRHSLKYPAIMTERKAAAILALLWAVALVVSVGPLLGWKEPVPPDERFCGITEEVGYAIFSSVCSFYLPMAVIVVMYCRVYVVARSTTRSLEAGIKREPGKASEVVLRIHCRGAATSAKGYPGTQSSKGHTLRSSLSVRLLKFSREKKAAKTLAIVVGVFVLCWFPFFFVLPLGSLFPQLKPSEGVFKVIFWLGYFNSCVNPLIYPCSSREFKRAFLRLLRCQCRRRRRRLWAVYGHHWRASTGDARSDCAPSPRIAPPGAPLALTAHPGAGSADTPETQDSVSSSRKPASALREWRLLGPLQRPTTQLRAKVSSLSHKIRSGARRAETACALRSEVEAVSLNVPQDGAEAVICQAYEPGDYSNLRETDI
T1 sequence (P43140 whole entry): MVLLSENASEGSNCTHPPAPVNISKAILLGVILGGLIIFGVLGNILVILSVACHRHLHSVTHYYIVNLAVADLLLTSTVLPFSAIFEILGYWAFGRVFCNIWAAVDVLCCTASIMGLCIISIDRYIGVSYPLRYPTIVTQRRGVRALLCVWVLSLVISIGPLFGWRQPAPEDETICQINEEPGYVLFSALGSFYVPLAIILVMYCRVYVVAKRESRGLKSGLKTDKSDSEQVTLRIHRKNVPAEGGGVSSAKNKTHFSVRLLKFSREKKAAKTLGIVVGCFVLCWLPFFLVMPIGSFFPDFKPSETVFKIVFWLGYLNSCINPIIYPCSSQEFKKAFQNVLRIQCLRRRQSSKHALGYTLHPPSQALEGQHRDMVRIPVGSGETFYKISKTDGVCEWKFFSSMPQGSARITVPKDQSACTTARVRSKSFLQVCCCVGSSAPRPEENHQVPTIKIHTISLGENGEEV
The data set can be described thus: Displacement of [3H]prazosin from alpha1 adrenergic receptor in Wistar rat cerebral cortex membrane. It is filed as tissue-based.

Data set [2] has as its system Aorta. The data set can be described thus: Vasorelaxant activity against noradrenaline-induced contraction in Wistar rat thoracic aorta in presence of calcium. In kind it is functional, tissue-based.
Data set [3] concerns Aorta. The data set can be described thus: Vasorelaxant activity against KCl-induced contraction in Wistar rat thoracic aorta in presence of calcium. In kind it is functional, tissue-based.
In data set [4] the target is Voltage-gated L-type calcium channel (Rattus norvegicus, UniProt P22002+Q02485+P27732). The data set can be described thus: Displacement of [3H]diltiazem from benzothiazepine binding site of L-type calcium channel in Wistar rat cerebral cortex membrane. (In general: Displacement assays read how much labelled ligand stays bound in the presence of the test substance.)
For data set [5], the system named is Aorta. The data set is described as follows: Vasorelaxant activity against KCl-induced contraction in Wistar rat thoracic aorta at 100 uM in presence of calcium. It is filed as functional. Also on record: scale not given: the % may be the effect or the level left.

A word on the pKi: it is −log10 of the Ki, conventionally taken in molar units. The term IC50 denotes the concentration that inhibits the measured activity by half.

Take `COc1ccc(CC2c3cc(OCc4ccccc4)c(OC)cc3CCN2C)cc1` (racemic): the negative logarithm of the Ki (pKi) turned out to be 5.73 in data set [1] and 5.82 in data set [4]. In addition, the values for the IC50 with Aorta [2] and with Aorta [3] were 4.27 µM and 11.5 µM, respectively.

Turning to `COc1cc2c(cc1OCc1ccccc1)C(Cc1ccc(OCc3ccccc3)cc1)N(C)CC2` (racemic), the negative logarithm of the Ki (pKi) in data set [1] worked out at 5.12; in data set [4], 5.74.

For `CCN1CCc2cc(OC)c(O)cc2C1Cc1ccc(O)cc1` (racemic), the pKi came out at 5.29 in data set [1] and 4.86 in data set [4].

For the compound `COc1cc2c(cc1O)C(Cc1ccc(OCc3ccccc3)cc1)NCC2` (racemic), the results for the pKi in data set [1] and in data set [4] were 5.69 and 5.57, respectively. Moreover, the IC50 is 16.2 µM in the data set on Aorta [2] and 13.8 µM in the data set with Aorta [3].

For `COc1cc2c(cc1OC)C(Cc1ccc(O)cc1)N(C)CC2` (racemic), the pKi in data set [1] stood at 5.14; in data set [4] it was 5.02. Besides, the values for the IC50 with Aorta [2] and in the data set on Aorta [3] were 209 µM and 115 µM, respectively.

For `COc1cc2c(cc1OCc1ccccc1)C(Cc1ccc(OCc3ccccc3)cc1)NCC2` (racemic), the pKi stood at 5.02 in data set [1] and 4.61 in data set [4].

Consider `COc1cc2c(cc1OC)C(Cc1ccc(O)cc1)NCC2` (racemic), for which the pKi in data set [1] is on record as 5.23.

`COc1cc2c(cc1O)C(Cc1ccc(O)cc1)NCC2` (racemic) [COCLAURINE] displayed a negative logarithm of the Ki (pKi) in data set [1] of 5.97. Besides, in the data set on Aorta [2], the concentration for half-maximal inhibition (IC50) was 17.4 µM. The Activity in the data set with Aorta [5] is 17.2%; in data set [4] (rat), 30%.

As to `COc1ccc2cc1Oc1ccc(cc1)C[C@H]1c3cc(c(OC)cc3CCN1C)Oc1c(OC)c(OC)cc3c1[C@H](C2)N(C)CC3` [FANCHININ], the pKi in data set [1] came to 6.16; in data set [4], 6.13. Also, the values for the half-maximal inhibitory concentration (IC50) in the data set with Aorta [2] and in the data set with Aorta [3] were 29.5 µM and 13.5 µM, respectively.

Consider `CCCN1CCc2cc(OC)c(OCc3ccccc3)cc2C1Cc1ccc(OCc2ccccc2)cc1` (racemic), for which the pKi in data set [1] is given as 5.05; in data set [4] it was 5.75.

Take `CCN1CCc2cc(OC)c(OC)cc2C1Cc1ccc(O)cc1` (racemic): the figures for the pKi in data set [1] and in data set [4] were 5.07 and 4.51, respectively.

As for `COc1ccc(CC2c3cc(O)c(OC)cc3CCN2C)cc1` (racemic), the results for the negative logarithm of the Ki (pKi) in data set [1] and in data set [4] were 5.29 and 4.9, respectively. Further, the results for the IC50 in the data set on Aorta [2] and in the data set with Aorta [3] were 25.1 µM and 72.4 µM, respectively.

With `COc1ccc(CC2c3cc(OC)c(OC)cc3CCN2C)cc1` (racemic), the negative-log Ki (pKi) came out at 5.1 in data set [1] and 5.38 in data set [4]. For the same compound, the half-inhibitory concentration (IC50) with Aorta [2] was 66.1 µM; in the data set on Aorta [3], 14.8 µM.

In the case of `COc1cc2c(cc1OCc1ccccc1)C(Cc1ccc(O)cc1)NCC2` (racemic), the negative-log Ki (pKi) in data set [1] is 5.49; in data set [4], 5.6. Further, the IC50 in the data set with Aorta [2] is 13.2 µM; in the data set with Aorta [3] it was 7.59 µM.

Regarding `COc1ccc(CC2NCCc3cc(OC)c(O)cc32)cc1` (racemic), the pKi in data set [1] is given as 4.92; in data set [4], 4.49.

As for `COc1cc2c(cc1OCc1ccccc1)C(Cc1ccc(O)cc1)N(C)CC2` (racemic), the figures for the pKi in data set [1] and in data set [4] were 5.49 and 5.7, respectively. The values for the IC50 in the data set on Aorta [2] and in the data set with Aorta [3] were 8.71 µM and 5.75 µM, respectively.

With `COc1ccc(CC2NCCc3cc(OC)c(OCc4ccccc4)cc32)cc1` (racemic), the pKi in data set [1] came out at 5.34.

Consider `COc1cc2c(cc1O)C(Cc1ccc(O)cc1)N(C)CC2` (racemic) [METHYL COCLAURINE], for which the results for the pKi in data set [1] and in data set [4] were 5.63 and 4.64, respectively. The IC50 in the data set with Aorta [2] was 24.5 µM; in the data set on Aorta [3], 67.6 µM.

The record behind these values is ChEMBL document CHEMBL1146551, “Simplified tetrandrine congeners as possible antihypertensive agents with a dual mechanism of action” (J Nat Prod, 2003).
